In assay [1] the test system is SW620. Briefly: Cell proliferation experiment (CellTiter-Glo). Format: cell-based. The conditions noted are these: read-out: IC50(nM) SW620. In general terms: Cellular ATP, detected with luciferase, serves as a proxy for viable cell number.
The test system of assay [2] is AGS. Briefly: Cell proliferation experiment (CellTiter-Glo). The conditions noted are these: read-out: IC50(nM) AGS. It is filed as cell-based.
Assay [3] addresses KRAS G12D (Homo sapiens, UniProt P01116, G12D).
Setting [4] is: SW620, KRAS mutation type G12V, 96 h incubation.
[5] abbreviates: AGS, KRAS mutation type G12D, 96 h incubation.

We go through 18 compounds from patent EP4631940A1, “COMPOUND TARGETING PAN-KRAS PROTEIN DEGRADATION AGENT AND USE THEREOF” (Betta Pharmaceuticals Co., Ltd., priority 2022, dated 2024).

Where two headings read alike, the source gives them in different places.

In general, IC50 refers to the concentration that inhibits the measured activity by half. As for `C=C1CN2[C@H](COC(=O)N3CCC4(CC3)CC(C(=O)N[C@H](C(=O)N3C[C@H](O)C[C@H]3C(=O)N[C@@H](C)c3ccc(-c5scnc5C)cc3)C(C)(C)C)C4)CC[C@@]2(COc2nc(N3CCC[C@@](C)(O)C3)c3cnc(-c4cc(O)cc5ccc(F)c(CC)c45)c(F)c3n2)C1` [Compound 140], the values for the half-maximal inhibitory concentration (IC50) in assay [1] and in assay [2] were 167 nM and 28 nM, respectively.
For the compound `CCc1c(F)ccc2cc(O)cc(-c3ncc4c(N5CCC[C@@](C)(O)C5)nc(OCC5(CN6CCC(c7cc([C@H](C(=O)N8C[C@H](O)C[C@H]8C(=O)N[C@@H](C)c8ccc(-c9scnc9C)cc8)C(C)C)on7)CC6)CC5)nc4c3F)c12` [Compound 147], the half-maximal inhibitory concentration (IC50) in assay [2] was 16 nM. In addition, in assay [3], the DC50 was 24 nM and the “Dmax (%)” value turned out to be 95%.
Turning to `CCc1c(F)ccc2cc(O)cc(-c3ncc4c(N5CCC[C@@](C)(O)C5)nc(OCC5(CN6CCN(C(=O)c7cnc(-c8cn([C@H](C(=O)N9C[C@H](O)C[C@H]9C(=O)N[C@@H](C)c9ccc(-c%10scnc%10C)cc9)C(C)C)nn8)cn7)CC6)CC5)nc4c3F)c12` [Compound 173], the IC50 in assay [1] (setting [4]) came to 35 nM; in assay [2] (setting [5]) it was 6 nM.
Taken in the same sequence, the figures for `CCc1c(F)ccc2cc(O)cc(-c3ncc4c(N5CCC[C@@](C)(O)C5)nc(OCC5(CN6CCN(CCOc7cc([C@H](C(=O)N8C[C@H](O)C[C@H]8C(=O)N[C@@H](C)c8ccc(-c9scnc9C)cc8)C(C)C)on7)CC6)CC5)nc4c3F)c12` [Compound 175] were 70 nM and 26 nM.
For `CCc1c(F)ccc2cc(O)cc(-c3ncc4c(N5CCC[C@@](C)(O)C5)nc(OCC5(CN6CCC(Oc7cnc(-c8cn([C@H](C(=O)N9C[C@H](O)C[C@H]9C(=O)N[C@@H](CC(=O)NC)c9ccc(-c%10scnc%10C)cc9)C(C)C)nn8)cn7)CC6)CC5)nc4c3F)c12` [Compound 190, (2S,4R)-1-((S)-2-(4-(5-(1-((((7-(8-ethyl-7-fluoro-3-hydroxynaphthalen-1-yl)-8-fluoro-4-(((R)-3-hydroxy-3-methylpiperidin-1-yl)pyrido[4,3-d]pyrimidin-2-yl)oxy)methyl)cyclopropyl)methyl)piperidin-4-yl)oxy)-2-ylpyrazin-1H-1,2,3-triazol-1-yl)-3-methylbutanoyl)-4-hydroxy-N-((S)-3-(methylamino)-1-(4-(4-methylthiazol-5-yl)phenyl)-3-oxopropyl)pyrrolidine-2-carboxamide], the half-maximal inhibitory concentration (IC50) came to 38 nM in assay [1] (setting [4]) and 11 nM in assay [2] (setting [5]).
Take `CCc1c(F)ccc2cc(O)cc(-c3ncc4c(N5CCC[C@@](C)(O)C5)nc(OCC5(CN6CCC(N7CCC(c8cnc(-c9cn([C@H](C(=O)N%10C[C@H](O)C[C@H]%10C(=O)N[C@@H](C)c%10ccc(-c%11scnc%11C)cc%10)C(C)C)nn9)cn8)CC7)CC6)CC5)nc4c3F)c12` [Compound 195]: the IC50 amounted to 18 nM in assay [1] (setting [4]) and 4.4 nM in assay [2] (setting [5]).
`CCc1c(F)ccc2cc(O)cc(-c3ncc4c(N5CCC[C@@](C)(O)C5)nc(OCC5(CN6CCC(N7CCN(c8cnc(-c9cn([C@H](C(=O)N%10C[C@H](O)C[C@H]%10C(=O)N[C@@H](C)c%10ccc(-c%11scnc%11C)cc%10)C(C)C)nn9)cn8)CC7)CC6)CC5)nc4c3F)c12` [Compound 196, (2S,4R)-1-((S)-2-(4-(5-(4-(1-(((7-(8-ethyl-7-fluoro-3-hydroxynaphthalen-1-yl)-8-fluoro-4-(((R)-3-hydroxy-3-methylpiperidin-1-yl)pyrido[4,3-d]pyrimidin-2-yl)oxy)methyl)cyclopropyl)methyl)piperidin-4-yl)piperazin-1-yl)pyrazin-2-yl)-1H-1,2,3-triazol-1-yl)-3-methylbutanoyl)-4-hydroxy-N-(((S)-1-(4-(4-methylthiazol-5-yl)phenyl)ethyl)pyrrolidine-2-carboxamide]: the concentration for half-maximal inhibition (IC50) in assay [1] (setting [4]) was found to be 15 nM; in assay [2] (setting [5]), 4 nM.
`CCc1c(F)ccc2cc(O)cc(-c3ncc4c(N5CCC[C@@](C)(O)C5)nc(OCC5(CN6CCN(C7CCN(c8cnc(-c9cn([C@H](C(=O)N%10C[C@H](O)C[C@H]%10C(=O)N[C@@H](C)c%10ccc(-c%11scnc%11C)cc%10)C(C)C)nn9)cn8)CC7)CC6)CC5)nc4c3F)c12` [Compound 197]: the 50% inhibitory concentration (IC50) in assay [1] (setting [4]) was 32 nM; in assay [2] (setting [5]), 6.1 nM.
Consider `CCc1c(F)ccc2cc(O)cc(-c3ncc4c(N5CCC[C@@](C)(O)C5)nc(OCC5(CN6CCC(OCc7cnc(-c8cn([C@H](C(=O)N9C[C@H](O)C[C@H]9C(=O)N[C@@H](C)c9ccc(-c%10scnc%10C)cc9)C(C)C)nn8)cn7)CC6)CC5)nc4c3F)c12` [Compound 198], for which the IC50 in assay [1] (setting [4]) came to 21 nM; in assay [2] (setting [5]) it was 6.9 nM.
Taken in the same sequence, the figures for `CCc1c(F)ccc2cccc(-c3ncc4c(N5CCC[C@@](C)(O)C5)nc(OCC5(CN6CCC(Oc7cnc(-c8cn([C@H](C(=O)N9C[C@H](O)C[C@H]9C(=O)N[C@@H](C)c9ccc(-c%10scnc%10C)cc9)C(C)C)nn8)cn7)CC6)CC5)nc4c3F)c12` [Compound 201] were 46 nM and 13 nM.
For `CCc1c(F)ccc2cc(O)cc(-c3ncc4c(N5CCCC(C)(O)C5)nc(OCC5(CN6CCN(Cc7cc(-c8cn([C@H](C(=O)N9C[C@H](O)C[C@H]9C(=O)N[C@@H](C)c9ccc(-c%10scnc%10C)cc9)C(C)C)nn8)n(C)n7)CC6)CC5)nc4c3F)c12` (stereo partly drawn) [Compound 202], in that order: 54 nM and 15 nM.
Take “(2S,4R)-1-((2S)-2-(4-(5-(1-(4-((1-(((7-(8-ethyl-7-fluoro-3-hydroxynaphthalen-1-yl)-8-fluoro-4-(( R)-3-hydroxy-3-methylpiperidin-1-yl)pyrido[4,3-d]pyrimidin-2-yl)oxy)methyl)cyclopropyl)meth yl)piperidin-1-yl)ethyl)piperidin-2-yl)-1H-1,2,3-triazol-1-yl)-3-methylbutanoyl)-4-hydroxy-N-(( S)-1-(4-(4-methylthiazol-5-yl)phenyl)ethyl)pyrrolidine-2-carboxamide [Compound 194]”: the half-inhibitory concentration (IC50) in assay [1] stood at 26 nM; in assay [2], 5.5 nM.
In the case of “(2S,4R)-1-((S)-2-(4-(5-(2-(4-((1-((7-(8-ethyl-7-fluoro-3-hydroxynaphthalen-1-yl)-8-fluoro-4-((R )-3-hydroxy-3-methylpiperidin-1-yl)pyrido[4,3-d]pyrimidin-2-yl)oxy)methyl)cyclopropyl)methy l)piperazin-1-yl)-2-oxyethyl)pyrazin-2-yl)-1H-1,2,3-triazol-1-yl)-3-methylbutanoyl)-4-hydroxy-N-((S)-1-(4-(4-methylthiazol-5-yl)phenyl)ethyl)pyrrolidine-2-carboxamide [Compound 174]”, the values for the half-inhibitory concentration (IC50) in assay [1] (setting [4]) and in assay [2] (setting [5]) were 59 nM and 8 nM, respectively.
Regarding “(2S,4R)-1-((S)-2-(4-(5-(2-(4-((1-(((7-(8-ethyl-7-fluoro-3-hydroxynaphthalen-1-yl)-8-fluoro-4-(( R)-3-hydroxy-3-methylpiperidin-1-yl)pyrido[4,3-d]pyrimidin-2-yl)oxy)methyl)cyclopropyl)meth yl)piperazin-1-yl)ethyl)pyrazin-2-yl)-1H-1,2,3-triazol-1-yl)-3-methylbutanoyl)-4-hydroxy-N-((S )-1-(4-(4-methylthiazol-5-yl)phenyl)ethyl)pyrrolidine-2-carboxamide [Compound 191]”, the 50% inhibitory concentration (IC50) worked out at 12 nM in assay [1] and 3.1 nM in assay [2].
With “(2S,4R)-1-((S)-2-(4-(5-(3-(1-(((7-(8-ethyl-7-fluoro-3-hydroxynaphthalen-1-yl)-8-fluoro-4-((R)-3 -hydroxy-3-methylpiperidin-1-yl)pyrido[4,3-d]pyrimidin-2-yl)-3-methylbutanoyl)-4-hydroxy-N-((S)-1-(4-(4-methylthiazol-5-yl)phenyl)ethyl)pyrrolidine-2-carboxamide [Compound 200]”, the IC50 in assay [1] (setting [4]) was found to be 20 nM; in assay [2] (setting [5]), 4.6 nM.
Turning to “(2S,4R)-1-((S)-2-(4-(5-(3-(4-((1-((7-(8-ethyl-7-fluoro-3-hydroxynaphthalen-1-yl)-8-fluoro-4-((R )-3-hydroxy-3-methylpiperidin-1-yl)pyrido[4,3-d]pyrimidin-2-yl)oxy)methyl)cyclopropyl)methy l)piperazin-1-yl)azetidin-1-yl)pyrazin-2-yl)-1H-1,2,3-triazol-1-yl)-3-methylbutanoyl)-4-hydroxy -N-((R)-2-hydroxy-1-(4-(4-methylthiazol-5-yl)phenyl)ethyl)pyrrolidine-2-carboxamide [Compound 192]”, the concentration for half-maximal inhibition (IC50) in assay [1] (setting [4]) came to 17 nM; in assay [2] (setting [5]) it was 3.2 nM.
In the case of “(2S,4R)-1-((S)-2-(4-(5-((1-((1-(((7-(8-ethyl-7-fluoro-3-hydroxynaphthalen-1-yl)-8-fluoro-4-((R)-3-hydroxy-3-methylpiperidin-1-yl)pyrido[4,3-d]pyrimidin-2-yl)oxy)methyl)cyclopropyl)methyl) piperidin-4-yl)methyl)piperazin-2-yl)-1H-1,2,3-triazol-1-yl)-3-methylbutanoyl)-4-hydroxy-N-((S )-1-(4-(4-methylthiazol-5-yl)phenyl)ethyl)pyrrolidine-2-carboxamide [Compound 193]”, the values for the IC50 in assay [1] and in assay [2] were 24 nM and 7.3 nM, respectively.
In the case of “(7-(8-ethyl-7-fluoro-3-hydroxynaphthalen-1-yl)-8-fluoro-4-(R)-3-hydroxy-3-methylpiperidin-1-y l)pyrido[4,3-d]pyrimidin-2-yl)oxy)methyl)-6-methylenehexahydro-1H-pyrrolizin-3-yl)methyl ((3-(1-((S)-1-(2S,4R)-4-hydroxy-2-(S)-1-(4-methylthiazol-5-yl)phenyl)ethyl)carbamoyl)pyrrolidi n-1-yl)-3-methyl-1-oxobutan-2-yl)-1H-1,2,3-triazol-4-yl)bicyclo[1.1.1]pentan-1-yl)methyl)carba mate [Compound 126]”, the 50% inhibitory concentration (IC50) in assay [1] was 246 nM. The IC50 in assay [2] came to 32 nM. Besides, in assay [3], the DC50 came to 23 nM and the “Dmax (%)” value is recorded as 95%.
